# Several values for one entry are separate records, joined by “and”; a condition that tells them apart may be missing. Equal values may be shown once. Where a name gives a salt, the structure may show the parent alone. Read-outs that look alike come from different tables or passages of the source.
# Assays:
# γ globin gene = γ globin gene induction by relative quantitative RT-PCR; format: cell-based, human; settings: for EC (μM) induction of HU IC50 (2.3 fold): concentration inducing γ globin gene expression 2.3-fold, primary human erythroid cells; for γ globin induction (IC50): Table 3, γ globin mRNA induction fold at the compound's IC50, 3 days
# Experimental: (§1) After 3 days of drug-treatment, the total RNA was extracted by RNA Spin mini kit (Ge-Healthcare) and reverse-transcription was performed by using superscript II (Invitrogen) followed the manufactors instruction. Quantitative PCR was performed on LightCycler with using STBR green master mix followed the manufactors instruction (Roche). The absolute quantitative RT-PCR was calculated by the standard curve with supplying a known copy number of plasmids. The relative quantitative RT-PCR was normalized to the expression levels of the β-actin and compared to the mock control.
# To search for new agents, which are capable of inducing the expression of γ globin, a series of naphthalimide derivatives with various substituent(s) on the naphthalene ring and the heterocyclic N-atom (A1-A14, B1-B4, C1-C5, D1, and E1-E3, FIG. 2) were synthesized. These derivatives were subjected to evaluating the γ globin induction abilities in differentiated peripheral blood mononuclear cells (PBMCs). The PBMCs isolated from the peripheral blood of donors were expanded and differentiated for a total of 14 days in a two-phase liquid culture. The resulted primary erythoid cells were then treated with different dosages of naphthalimide derivatives individually for another 3 days. The expression levels of the endogenous γ globin gene were estimated by relative quantitative RT-PCR and the proliferation rates of these cells were examined by AlamarBlue cell viability assay. […]; 2-4.5-folds induction of the γ globin gene expression in the compounds-treated cells (FIG. 3).
# [1] = solubility in DMSO and H2O; format: physicochemical; settings: for water-solubility (in words): comparison
# [2] = system: primary human erythroid cells; assay: AlamarBlue cell viability / proliferation assay; settings: 3 days
# ε globin = assay: absolute quantitative RT-PCR, proportion of ε globin mRNA; format: cell-based; settings: primary human erythroid cells, at IC50, 3 days; mock 0.0%
# Experimental: as §1
# (§2) To evaluate the specificity of S51021, SS-2394, HU, and NaB in mediating globin genes activation, the amounts of individual P3-liked globin mRNAs were measured by absolute quantitative RT-PCR.
# (§3) The primary human erythroid cells were treated with HU (145.9 μM), NaB (221.6 μM), S51021 (21.8 μM) or SS2394 (2.3 μM) for 3 days, and the expression levels of each globin mRNA were estimated by absolute quantitative RT-PCR analysis. The proportions of individual 3-like globin chains among the total 3-like globin mRNA are shown. Data are presented as the mean±SEM, N=3.
# β globin = assay: absolute quantitative RT-PCR, proportion of β globin mRNA; format: cell-based; settings: primary human erythroid cells, at IC50, 3 days; mock 88.8%; listed as SS-2394, hydrochloride
# Experimental: as §1, §2, §3
# δ globin = assay: absolute quantitative RT-PCR, proportion of δ globin mRNA; format: cell-based; settings: primary human erythroid cells, at IC50, 3 days; mock 3.3%
# Experimental: as §1, §2, §3
# [3] = stability observed during biological evaluation; format: physicochemical; settings: deaminated or converted into C6-hydroxy derivative
# From the text: To optimize the biological activity and reduce the cytotoxicity of SS-2394 by structural modification, the core structure of naphthalimide (I) was modified by alternating the carbonyl function of benzo[de]isoquinoline-1,3(2H)-dione; reducing the carbonyl function to hydroxyl derivatives (II), which can be further converted into dehydroxylated derivatives III and IV (Scheme 1). During biological evaluation of SS-2394, it was observed that the C6-amino function in SS-2394 was unstable and can be deaminated or converted into the corresponding C6-hydroxy derivatives. Therefore, various substituent R to the C6 of benzo[de]isoquinolin ring were introduced. The substituent R can be H, NH2, NHCOCH3, NHR′, NR′2; wherein R′ can be a C1 to C5 alkyl group. The new compounds bear a N,N-dimethylaminoethyl hydrophilic side chain, which can form acid salts with various inorganic acids or organic acids. Thus, the compounds are water soluble compounds and are suitable for biological application.
# [4] = Table 1a, concentration reducing proliferation rate of primary human erythroid cells by 50%
# [5] = Table 3, primary human erythroid cells, proliferation reduced by 50%
# [6] = water, H2O, read-out: solubility H2O
SMILES,EC (μM) induction of HU IC50 (2.3 fold) (γ globin gene) [µM],"solubility ([1]; DMSO, organic solvent or mixture, read-out: solubility DMSO) [mM]","IC50 [2, 4] [nM]","IC50 [2, 5] [nM]",γ globin induction (IC50) (γ globin gene; hydrochloride) [fold],water-solubility (in words) ([1]; hydrochloride),"water-solubility (in words) ([1]; listed as SS-2394, hydrochloride)","solubility [1, 6] [mM]",ε globin proportion of total β-like globin mRNA (ε globin) [%],β globin proportion of total β-like globin mRNA (β globin),δ globin proportion of total β-like globin mRNA (δ globin) [%],stability of the C6-amino function [3],γ globin induction (IC50) (γ globin gene) [fold],water-solubility (in words) [1]
"Nc1ccc2c3c(cccc13)C(=O)N(c1ccccc1)C2=O [Compound E1, N-Phenyl-4-amino-1,8-naphthalimide]",2.9,10,2200,300,,,,,,,,,,
"CN(C)CCN1C(=O)c2cccc3c(N)ccc(c23)C1=O [Compound E2, N-(2-dimethylamino-ethyl)-4-amino-1,8-naphthalimide hydrochloride]",0.8,,2300,,4.0,greatly improved water-solubility,higher water-solubility than that of the parental compound S51021,> 100,0.5 ± 0.1,82.3% and 82.3 ± 1.1%,5.5 ± 0.4,unstable,,
"CN(C)CCCN1C(=O)c2cccc3c(N)ccc(c23)C1=O [Compound E3, N-(3-dimethylamino-propyl)-4-amino-1,8-naphthalimide hydrochloride]",7.4,,11200,11200,,,,> 100,,,,,2.7,greatly improved water-solubility

# From US20170290820A1, “METHODS AND COMPOSITIONS FOR TREATING BETA-THALASSEMIA AND SICKLE CELL DISEASE” (Academia Sinica, priority 2013, published 2017)
